Laboratory results published in patent US20260042755A1, “GPR6 INVERSE AGONISTS” (MapLight Therapeutics, Inc., priority 2022, published 2026).

Tests used:
[1] = target: T1, GPR6 (Homo sapiens, UniProt P46095); test: GPR6 antagonist functional cAMP assay (LANCE Ultra cAMP TR-FRET, CHO cells stably expressing GPR6); assay type: cell-based
T1 construct: expressed in transfected cells; host or cells: CHO cells
Summary of the method: (§1)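 Suspended cells were plated at 10,000 per well in Krebs-Ringer bicarbonate buffer containing 0.1% BSA and 150 μM Ro 20-1724, then treated with compounds for 45 min at 37 °C. Intracellular cAMP was then quantified by TR-FRET immunoassay.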

[2] = target: T2, GPR3 (Homo sapiens, UniProt P46089); test: GPR3 antagonist functional cAMP assay (LANCE Ultra cAMP TR-FRET, CHO cells stably expressing GPR3); assay type: cell-based
T2 construct: expressed in transfected cells; host or cells: CHO cells
T2 sequence (P46089 whole entry, species assumed): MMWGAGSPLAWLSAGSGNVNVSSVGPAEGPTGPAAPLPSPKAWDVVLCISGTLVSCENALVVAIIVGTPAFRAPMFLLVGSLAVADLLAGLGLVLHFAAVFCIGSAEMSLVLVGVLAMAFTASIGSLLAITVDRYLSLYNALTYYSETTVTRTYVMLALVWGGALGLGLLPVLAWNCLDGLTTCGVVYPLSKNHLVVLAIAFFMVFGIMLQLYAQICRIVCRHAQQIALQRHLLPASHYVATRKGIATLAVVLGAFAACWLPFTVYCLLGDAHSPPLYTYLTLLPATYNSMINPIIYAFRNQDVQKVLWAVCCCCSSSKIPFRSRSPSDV
Summary of the method: as §1

[3] = CHO cells stably expressing GPR6, cAMP assay (Example 24)
[4] = CHO cells stably expressing GPR3, cAMP assay (Example 24)

T1 sequence (P46095 whole entry): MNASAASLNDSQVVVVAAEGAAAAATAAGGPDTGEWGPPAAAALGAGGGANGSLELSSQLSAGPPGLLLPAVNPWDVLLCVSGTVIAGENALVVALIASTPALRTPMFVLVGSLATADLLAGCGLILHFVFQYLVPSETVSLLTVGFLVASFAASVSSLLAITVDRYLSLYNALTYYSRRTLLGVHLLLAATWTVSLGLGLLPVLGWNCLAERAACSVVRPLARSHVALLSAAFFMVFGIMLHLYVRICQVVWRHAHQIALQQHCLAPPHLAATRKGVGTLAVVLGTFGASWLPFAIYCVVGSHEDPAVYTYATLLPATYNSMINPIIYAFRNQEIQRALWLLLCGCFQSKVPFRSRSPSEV

| SMILES | IC50 [1, 3] [nM] | IC50 [2, 4] [nM] | IC50 ([1]; procedure of Example 24) [nM] | IC50 ([2]; procedure of Example 24) [nM] | also measured |
| --- | --- | --- | --- | --- | --- |
| CC(=O)N1CCc2nc(N3CCC(Oc4ccc(F)cc4F)CC3)c(C3CCCC(=O)N3)nc2C1 (stereo not drawn) [Compound 258, 6-{6-acetyl-2-[4-(2,4-difluorophenoxy)piperidin-1-yl]-5H,6H,7H,8H-pyrido[3,4-b]pyrazin-3-yl}piperidin-2-one] | ≥ 30000 | ≥ 30000 | – | – | – |
| CC(C)(O)C(O)c1cc2nc(-c3cnn(CF)c3)c(N3CCC(=Cc4ccc(F)cc4F)CC3)nc2cn1 (single isomer, unassigned) [Compound 777] | – | – | 100 to 1000 | 100 to 1000 | – |
| COCC(=O)N1CCc2nc(N3CCC(Oc4ccc(F)cc4F)CC3)c(-c3cn[nH]c3)nc2C1 [Compound 148, 1-{2-[4-(2,4-difluorophenoxy)piperidin-1-yl]-3-(1H-pyrazol-4-yl)-5H,6H,7H,8H-pyrido[3,4-b]pyrazin-6-yl}-2-methoxyethan-1-one] | < 100 | 1000 to 30000 | – | – | – |
| Cn1cc(-c2nc3cnc(CC(O)CO)cc3nc2N2CCC(Oc3ccc(F)cc3F)CC2)cn1 (stereo not drawn) [Compound 377, 3-(2-(4-(2,4-difluorophenoxy)piperidin-1-yl)-3-(1-methyl-1H-pyrazol-4-yl)pyrido[3,4-b]pyrazin-7-yl)propane-1,2-diol] | 100 to 1000 | 1000 to 30000 | – | – | – |
| CC(=O)N1CCc2nc(N3CCN(Cc4ccc(C#N)cc4F)CC3)c(-c3cnn(C)c3)nc2C1 [Compound 356, 4-({4-[6-acetyl-3-(1-methyl-1H-pyrazol-4-yl)-5H,6H,7H,8H-pyrido[3,4-b]pyrazin-2-yl]piperazin-1-yl}methyl)-3-fluorobenzonitrile] | – | – | 1000 to 30000 | 1000 to 30000 | – |
| Cn1cc(-c2nc3cnccc3nc2N2CCN(C(=O)c3ccc(F)cc3F)CC2)cn1 [Compound 128, (2,4-difluorophenyl)(4-(3-(1-methyl-1H-pyrazol-4-yl)pyrido[3,4-b]pyrazin-2-yl)piperazin-1-yl)methanone] | 1000 to 30000 | ≥ 30000 | – | – | – |
| CCn1cc(-c2nc3cnc(C)cc3nc2N2CCC(Oc3ccc(F)cc3F)CC2)cn1 [Compound 313, 4-(2,4-difluorophenoxy)-1-[3-(1-ethyl-1H-pyrazol-4-yl)-7-methylpyrido[3,4-b]pyrazin-2-yl]piperidine] | – | – | 100 to 1000 | 1000 to 30000 | – |
| CC(=O)N1CCc2nc(N3CCC([C@H](F)c4ccc(F)cc4F)CC3)c(-c3cnn(C)c3)nc2C1 (single isomer, unassigned) [Compound 658] | – | – | < 100 | 100 to 1000 | – |
| CCn1cc(-c2nc3cnc(C(O)C(C)(C)O)cc3nc2N2CCN(Cc3ccc(F)cc3F)CC2)cn1 (stereo not drawn) [Compound 270, 1-(2-{4-[(2,4-difluorophenyl)methyl]piperazin-1-yl}-3-(1-ethyl-1H-pyrazol-4-yl)pyrido[3,4-b]pyrazin-7-yl)-2-methylpropane-1,2-diol] | – | – | 100 to 1000 | 1000 to 30000 | – |
| CCn1cc(-c2nc3c(nc2N2CCC(Oc4ccc(F)cc4F)CC2)CCN(C(=O)C2COCCN2C)C3)cn1 (stereo not drawn) [Compound 492, 3-{2-[4-(2,4-difluorophenoxy)piperidin-1-yl]-3-(1-ethyl-1H-pyrazol-4-yl)-5H,6H,7H,8H-pyrido[3,4-b]pyrazine-6-carbonyl}-4-methylmorpholine] | – | – | – | – | IC50 ([1]; CHO cells stably expressing GPR6, cAMP assay): 100 to 1000 nM; IC50 ([2]; CHO cells stably expressing GPR3, cAMP assay): 1000 to 30000 nM |
| COc1ncc(-c2nc3c(nc2N2CCC(Oc4ccc(F)cc4F)CC2)CCN(C(C)=O)C3)cn1 [Compound 190, 1-{2-[4-(2,4-difluorophenoxy)piperidin-1-yl]-3-(2-methoxypyrimidin-5-yl)-5H,6H,7H,8H-pyrido[3,4-b]pyrazin-6-yl}ethan-1-one] | 100 to 1000 | 1000 to 30000 | – | – | – |
| [2H]C([2H])([2H])C([2H])([2H])n1cc(-c2nc3c(nc2N2CCC(Oc4ccc(F)cc4F)CC2)CCN(C(C)=O)C3)cn1 [Compound 406, 1-{2-[4-(2,4-difluorophenoxy)piperidin-1-yl]-3-{1-[(1,1,2,2,2-2H5)ethyl]-1H-pyrazol-4-yl}-5H,6H,7H,8H-pyrido[3,4-b]pyrazin-6-yl}ethan-1-one] | < 100 | 1000 to 30000 | – | – | – |
